{"source": "PubChem BioAssay (NCI)", "assay_in_all_cases": "NCI anticancer screen, dose series, 48 h", "key": {"[1]": {"test_system": "NCI-H23 lung"}, "[2]": {"test_system": "SK-MEL-28 melanoma"}, "[3]": {"test_system": "MCF7 breast"}, "[4]": {"test_system": "NCI-H226 lung"}, "[5]": {"test_system": "HL-60(TB) leukemia"}, "[6]": {"test_system": "SF-268 CNS"}, "[7]": {"test_system": "UO-31 renal"}, "[8]": {"test_system": "K-562 leukemia"}, "[9]": {"test_system": "PC-3 prostate"}, "[10]": {"test_system": "HOP-62 NSCLC"}, "[11]": {"test_system": "HT29 colon"}, "[12]": {"test_system": "HCC-2998 colon"}, "[13]": {"test_system": "A498 renal"}, "[14]": {"test_system": "UACC-257 melanoma"}, "[15]": {"test_system": "TK-10 renal"}, "[16]": {"test_system": "SNB-75 CNS"}, "[17]": {"test_system": "OVCAR-8 ovarian"}, "[18]": {"test_system": "KM12 colon"}, "[19]": {"test_system": "SF-539 CNS"}, "[20]": {"test_system": "SK-MEL-2 melanoma"}, "[21]": {"test_system": "OVCAR-3 ovarian"}, "[22]": {"test_system": "IGROV1 ovarian"}, "[23]": {"test_system": "DU-145 prostate"}, "[24]": {"test_system": "SR leukemia"}, "[25]": {"test_system": "786-0 renal"}, "[26]": {"test_system": "CAKI-1 renal"}, "[27]": {"test_system": "CCRF-CEM leukemia"}, "[28]": {"test_system": "SW-620 colon"}, "[29]": {"test_system": "COLO 205 colon"}, "[30]": {"test_system": "A549 NSCLC"}, "[31]": {"test_system": "ACHN renal"}, "[32]": {"test_system": "HOP-92 NSCLC"}, "[33]": {"test_system": "HS 578T breast"}, "[34]": {"test_system": "NCI-H460 lung"}, "[35]": {"test_system": "SNB-19 CNS"}, "[36]": {"test_system": "LOX IMVI melanoma"}, "[37]": {"test_system": "SK-OV-3 ovarian"}, "[38]": {"test_system": "M14 melanoma"}, "[39]": {"test_system": "NCI/ADR-RES ovarian"}, "[40]": {"test_system": "BT-549 breast"}, "[41]": {"test_system": "MOLT-4 leukemia"}, "[42]": {"test_system": "SF-295 CNS"}, "[43]": {"test_system": "EKVX NSCLC"}, "[44]": {"test_system": "MDA-MB-435"}, "[45]": {"test_system": "SN12C renal"}, "[46]": {"test_system": "HCT-15 colon"}, "[47]": {"test_system": "T-47D breast"}, "[48]": {"test_system": "OVCAR-5 ovarian"}, "[49]": {"test_system": "OVCAR-4 ovarian"}, "[50]": {"test_system": "MDA-N"}, "[51]": {"test_system": "RPMI-8226 leukemia"}, "[52]": {"test_system": "HCT-116 colon"}, "[53]": {"test_system": "MALME-3M melanoma"}, "[54]": {"test_system": "UACC-62 melanoma"}, "[55]": {"test_system": "RXF 393 renal"}, "[56]": {"test_system": "U251 CNS"}}, "note": "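Values below derive from 48-hour exposures of cells grown in 96-well plates, with endpoints linearly interpolated between the two concentrations bracketing the appropriate inhibition level. The concentration for full growth arrest is given as TGI.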", "data": [{"smiles": "COC(=O)c1ccc(C(=O)NC(Cc2ccc(Oc3cc(CC(NC(=O)c4ccccc4C(=O)OC)C(=O)OC)ccc3OC)cc2)C(=O)OC)cc1", "note": "(centres undefined)", "values": [{"measurement": "TGI", "setting": "[1]", "result": "> 100", "unit": "µM"}, {"measurement": "TGI", "setting": "[2]", "result": "> 100", "unit": "µM"}, {"measurement": "TGI", "setting": "[3]", "result": "> 100", "unit": "µM"}, {"measurement": "TGI", "setting": "[4]", "result": "> 100", "unit": "µM"}, {"measurement": "TGI", "setting": "[5]", "result": "> 100", "unit": "µM"}, {"measurement": "TGI", "setting": "[6]", "result": "> 100", "unit": "µM"}, {"measurement": "TGI", "setting": "[7]", "result": "> 100", "unit": "µM"}, {"measurement": "TGI", "setting": "[8]", "result": "> 100", "unit": "µM"}, {"measurement": "TGI", "setting": "[9]", "result": "> 100", "unit": "µM"}, {"measurement": "TGI", "setting": "[10]", "result": "> 100", "unit": "µM"}, {"measurement": "TGI", "setting": "[11]", "result": "> 100", "unit": "µM"}, {"measurement": "TGI", "setting": "[12]", "result": "> 100", "unit": "µM"}, {"measurement": "TGI", "setting": "[13]", "result": "> 100", "unit": "µM"}, {"measurement": "TGI", "setting": "[14]", "result": "> 100", "unit": "µM"}, {"measurement": "TGI", "setting": "[15]", "result": "> 100", "unit": "µM"}, {"measurement": "TGI", "setting": "[16]", "result": "> 100", "unit": "µM"}, {"measurement": "TGI", "setting": "[17]", "result": "> 100", "unit": "µM"}, {"measurement": "TGI", "setting": "[18]", "result": "> 100", "unit": "µM"}, {"measurement": "TGI", "setting": "[19]", "result": "> 100", "unit": "µM"}, {"measurement": "TGI", "setting": "[20]", "result": "> 100", "unit": "µM"}, {"measurement": "TGI", "setting": "[21]", "result": "> 100", "unit": "µM"}, {"measurement": "TGI", "setting": "[22]", "result": "> 100", "unit": "µM"}, {"measurement": "TGI", "setting": "[23]", "result": "> 100", "unit": "µM"}, {"measurement": "TGI", "setting": "[24]", "result": "> 100", "unit": "µM"}, {"measurement": "TGI", "setting": "[25]", "result": "> 100", "unit": "µM"}, {"measurement": "TGI", "setting": "[26]", "result": "> 100", "unit": "µM"}, {"measurement": "TGI", "setting": "[27]", "result": "> 100", "unit": "µM"}, {"measurement": "TGI", "setting": "[28]", "result": "> 100", "unit": "µM"}, {"measurement": "TGI", "setting": "[29]", "result": "> 100", "unit": "µM"}, {"measurement": "TGI", "setting": "[30]", "result": "> 100", "unit": "µM"}, {"measurement": "TGI", "setting": "[31]", "result": "> 100", "unit": "µM"}, {"measurement": "TGI", "setting": "[32]", "result": "> 100", "unit": "µM"}, {"measurement": "TGI", "setting": "[33]", "result": 39.3, "unit": "µM"}, {"measurement": "TGI", "setting": "[34]", "result": "> 100", "unit": "µM"}, {"measurement": "TGI", "setting": "[35]", "result": "> 100", "unit": "µM"}, {"measurement": "TGI", "setting": "[36]", "result": "> 100", "unit": "µM"}, {"measurement": "TGI", "setting": "[37]", "result": "> 100", "unit": "µM"}, {"measurement": "TGI", "setting": "[38]", "result": "> 100", "unit": "µM"}, {"measurement": "TGI", "setting": "[39]", "result": "> 100", "unit": "µM"}, {"measurement": "TGI", "setting": "[40]", "result": "> 100", "unit": "µM"}, {"measurement": "TGI", "setting": "[41]", "result": "> 100", "unit": "µM"}, {"measurement": "TGI", "setting": "[42]", "result": "> 100", "unit": "µM"}, {"measurement": "TGI", "setting": "[43]", "result": "> 100", "unit": "µM"}, {"measurement": "TGI", "setting": "[44]", "result": "> 100", "unit": "µM"}, {"measurement": "TGI", "setting": "[45]", "result": "> 100", "unit": "µM"}, {"measurement": "TGI", "setting": "[46]", "result": "> 100", "unit": "µM"}, {"measurement": "TGI", "setting": "[47]", "result": "> 100", "unit": "µM"}, {"measurement": "TGI", "setting": "[48]", "result": "> 100", "unit": "µM"}, {"measurement": "TGI", "setting": "[49]", "result": "> 100", "unit": "µM"}, {"measurement": "TGI", "setting": "[50]", "result": "> 100", "unit": "µM"}, {"measurement": "TGI", "setting": "[51]", "result": "> 100", "unit": "µM"}, {"measurement": "TGI", "setting": "[52]", "result": "> 100", "unit": "µM"}, {"measurement": "TGI", "setting": "[53]", "result": "> 100", "unit": "µM"}]}, {"smiles": "Nc1ccc2c(c1)N(C(=O)c1cc3cc(NC(=O)c4cc5ccccc5o4)ccc3[nH]1)CC2CCl", "note": "(centres undefined)", "values": [{"measurement": "TGI", "setting": "[1]", "result": 0.161, "unit": "µM"}, {"measurement": "TGI", "setting": "[2]", "result": 0.502, "unit": "µM"}, {"measurement": "TGI", "setting": "[3]", "result": 2.38, "unit": "µM"}, {"measurement": "TGI", "setting": "[4]", "result": 0.329, "unit": "µM"}, {"measurement": "TGI", "setting": "[5]", "result": "> 100", "unit": "µM"}, {"measurement": "TGI", "setting": "[7]", "result": 13.1, "unit": "µM"}, {"measurement": "TGI", "setting": "[54]", "result": 0.794, "unit": "µM"}, {"measurement": "TGI", "setting": "[9]", "result": 12.2, "unit": "µM"}, {"measurement": "TGI", "setting": "[10]", "result": 0.804, "unit": "µM"}, {"measurement": "TGI", "setting": "[11]", "result": "> 32.7", "unit": "µM"}, {"measurement": "TGI", "setting": "[13]", "result": 0.544, "unit": "µM"}, {"measurement": "TGI", "setting": "[15]", "result": 2.07, "unit": "µM"}, {"measurement": "TGI", "setting": "[16]", "result": 0.469, "unit": "µM"}, {"measurement": "TGI", "setting": "[17]", "result": 1.45, "unit": "µM"}, {"measurement": "TGI", "setting": "[18]", "result": 2.37, "unit": "µM"}, {"measurement": "TGI", "setting": "[20]", "result": 0.398, "unit": "µM"}, {"measurement": "TGI", "setting": "[21]", "result": 0.56, "unit": "µM"}, {"measurement": "TGI", "setting": "[22]", "result": "> 100", "unit": "µM"}, {"measurement": "TGI", "setting": "[23]", "result": 2.08, "unit": "µM"}, {"measurement": "TGI", "setting": "[25]", "result": "> 37.9", "unit": "µM"}, {"measurement": "TGI", "setting": "[26]", "result": 12.9, "unit": "µM"}, {"measurement": "TGI", "setting": "[28]", "result": 12.6, "unit": "µM"}, {"measurement": "TGI", "setting": "[29]", "result": 1.6, "unit": "µM"}, {"measurement": "TGI", "setting": "[30]", "result": "> 34.1", "unit": "µM"}, {"measurement": "TGI", "setting": "[31]", "result": 11.6, "unit": "µM"}, {"measurement": "TGI", "setting": "[32]", "result": 1.47, "unit": "µM"}, {"measurement": "TGI", "setting": "[33]", "result": 0.696, "unit": "µM"}, {"measurement": "TGI", "setting": "[34]", "result": "> 32.8", "unit": "µM"}, {"measurement": "TGI", "setting": "[55]", "result": 0.0496, "unit": "µM"}, {"measurement": "TGI", "setting": "[35]", "result": 16.1, "unit": "µM"}, {"measurement": "TGI", "setting": "[36]", "result": "> 100", "unit": "µM"}, {"measurement": "TGI", "setting": "[37]", "result": "> 33.4", "unit": "µM"}, {"measurement": "TGI", "setting": "[56]", "result": 12, "unit": "µM"}, {"measurement": "TGI", "setting": "[39]", "result": 0.338, "unit": "µM"}, {"measurement": "TGI", "setting": "[40]", "result": 1.9, "unit": "µM"}, {"measurement": "TGI", "setting": "[41]", "result": "> 100", "unit": "µM"}, {"measurement": "TGI", "setting": "[44]", "result": 0.512, "unit": "µM"}, {"measurement": "TGI", "setting": "[45]", "result": "> 46.4", "unit": "µM"}, {"measurement": "TGI", "setting": "[46]", "result": "> 100", "unit": "µM"}, {"measurement": "TGI", "setting": "[47]", "result": 0.683, "unit": "µM"}, {"measurement": "TGI", "setting": "[48]", "result": "> 38.3", "unit": "µM"}, {"measurement": "TGI", "setting": "[49]", "result": 3.71, "unit": "µM"}, {"measurement": "TGI", "setting": "[50]", "result": 0.512, "unit": "µM"}, {"measurement": "TGI", "setting": "[51]", "result": 0.287, "unit": "µM"}, {"measurement": "TGI", "setting": "[52]", "result": "> 32.2", "unit": "µM"}, {"measurement": "TGI", "setting": "[53]", "result": 0.289, "unit": "µM"}]}]}
